Data as given in ChEMBL document CHEMBL3885881, “DrugMatrix”.

Organism: Rattus norvegicus
Assay: DrugMatrix - Regimen: Daily Repeat
Assay type: toxicity, organism-based, Sprague-Dawley
Design: regimen Daily Repeat, gender Male, age 6-8 weeks
Conditions: in vivo, po, route oral GAVAGE, […]; for ABSOLUTE BASOPHIL / ABSOLUTE EOSINOPHIL / ABSOLUTE LYMPHOCYTE / ABSOLUTE MONOCYTE / ABSOLUTE SEGMENTED NEUTROPHIL / BASOPHIL / EOSINOPHIL / ERYTHROCYTE COUNT / HEMATOCRIT / HEMOGLOBIN / LEUKOCYTE COUNT / LYMPHOCYTE / MEAN CORPUSCULAR HEMOGLOBIN / MEAN CORPUSCULAR HEMOGLOBIN CONCENTRATION / MEAN CORPUSCULAR VOLUME / MONOCYTE / NEUTROPHIL / NUCLEATED RED BLOOD CELLS / PLATELET COUNT: tissue Blood; for ALANINE AMINOTRANSFERASE / ALKALINE PHOSPHATASE / ASPARTATE AMINOTRANSFERASE / BLOOD UREA NITROGEN / CARBON DIOXIDE / CHLORIDE / CHOLESTEROL / CREATINE PHOSPHOKINASE / CREATININE / GLUCOSE / LACTATE DEHYDROGENASE / LIPASE / PHOSPHORUS / POTASSIUM / SODIUM / TOTAL BILIRUBIN / TOTAL PROTEIN / URIC ACID: tissue Plasma
[1] = 22 mg/kg, 120 h, dose level High, time 5 day
[2] = 72 h, dose 2.5 mg/Kg, dose level Low, time 3 day
[3] = 120 h, dose 2.5 mg/Kg, dose level Low, time 5 day

In the case of OCCN1CCN(CCCN2c3ccccc3Sc3ccc(C(F)(F)F)cc32)CC1 [FLUPHENAZINE], the “ABSOLUTE BASOPHIL” value [1] is reported as 0 CELLS/uL, the “ABSOLUTE EOSINOPHIL” value [1] is reported as 112 CELLS/uL and the “ABSOLUTE LYMPHOCYTE” value [1] is reported as 12846 CELLS/uL. For the same compound, the “ABSOLUTE MONOCYTE” value [1] was 29.33 CELLS/uL, the “ABSOLUTE SEGMENTED NEUTROPHIL” value [1] was 379.33 CELLS/uL and the BASOPHIL [1] was 0%. The EOSINOPHIL [1] was 1.33%, the “ERYTHROCYTE COUNT” value [1] was 6.02 x10E6/uL and the HEMATOCRIT [1] was 36.97%. The HEMOGLOBIN [1] was 14.2 G/DL, the “LEUKOCYTE COUNT” value [1] was 13.37 x10E3/uL and the LYMPHOCYTE [1] was 95%. For the same compound, the “MEAN CORPUSCULAR HEMOGLOBIN” value [1] was 23.6 pg, the “MEAN CORPUSCULAR HEMOGLOBIN CONCENTRATION” value [1] was 38.43 G/DL and the “MEAN CORPUSCULAR VOLUME” value [1] was 61.37 fL. For the same compound, the MONOCYTE [1] was 0.33%, the NEUTROPHIL [1] was 3.33% and the “NUCLEATED RED BLOOD CELLS” value [1] was 0 /100WBC. The “PLATELET COUNT” value [1] was 1170.67 x10E3/uL, the “ALANINE AMINOTRANSFERASE” value [1] was 39.33 u/L and the “ALKALINE PHOSPHATASE” value [1] was 322.67 u/L. For the same compound, the “ASPARTATE AMINOTRANSFERASE” value [1] was 67.67 u/L, the “BLOOD UREA NITROGEN” value [1] was 15.67 mg/dL and the “CARBON DIOXIDE” value [1] was 26.67 mmol/L. The CHLORIDE [1] was 101.33 MEQ/L, the CHOLESTEROL [1] was 61.33 mg/dL and the “CREATINE PHOSPHOKINASE” value [1] was 190.33 u/L. The CREATININE [1] was 0.13 mg/dL, the GLUCOSE [1] was 198.67 mg/dL and the “LACTATE DEHYDROGENASE” value [1] was 80.67 u/L. The LIPASE [1] was 9.67 u/L, the PHOSPHORUS [1] was 9.4 mg/dL and the POTASSIUM [1] was 5.22 MEQ/L. For the same compound, the SODIUM [1] was 144.73 MEQ/L, the “TOTAL BILIRUBIN” value [1] was 0.2 mg/dL and the “TOTAL PROTEIN” value [1] was 6.13 G/DL. For the same compound, the “URIC ACID” value [1] was 0.77 mg/dL, the “ABSOLUTE BASOPHIL” value [2] was 0 CELLS/uL and the “ABSOLUTE EOSINOPHIL” value [2] was 0 CELLS/uL. For the same compound, the “ABSOLUTE LYMPHOCYTE” value [2] was 6619.33 CELLS/uL, the “ABSOLUTE MONOCYTE” value [2] was 22 CELLS/uL and the “ABSOLUTE SEGMENTED NEUTROPHIL” value [2] was 525.33 CELLS/uL. For the same compound, the BASOPHIL [2] was 0%, the EOSINOPHIL [2] was 0% and the “ERYTHROCYTE COUNT” value [2] was 5.21 x10E6/uL. For the same compound, the HEMATOCRIT [2] was 33.8%, the HEMOGLOBIN [2] was 13.13 G/DL and the “LEUKOCYTE COUNT” value [2] was 7.17 x10E3/uL. For the same compound, the LYMPHOCYTE [2] was 92.33%, the “MEAN CORPUSCULAR HEMOGLOBIN” value [2] was 25.2 pg and the “MEAN CORPUSCULAR HEMOGLOBIN CONCENTRATION” value [2] was 38.83 G/DL. For the same compound, the “MEAN CORPUSCULAR VOLUME” value [2] was 64.97 fL, the MONOCYTE [2] was 0.33% and the NEUTROPHIL [2] was 7.33%. The “NUCLEATED RED BLOOD CELLS” value [2] was 0 /100WBC, the “PLATELET COUNT” value [2] was 973 x10E3/uL and the “ALANINE AMINOTRANSFERASE” value [2] was 49.67 u/L. For the same compound, the “ALKALINE PHOSPHATASE” value [2] was 458.33 u/L, the “ASPARTATE AMINOTRANSFERASE” value [2] was 79.67 u/L and the “BLOOD UREA NITROGEN” value [2] was 13.33 mg/dL. For the same compound, the “CARBON DIOXIDE” value [2] was 33.67 mmol/L, the CHLORIDE [2] was 99.5 MEQ/L and the CHOLESTEROL [2] was 74 mg/dL. For the same compound, the “CREATINE PHOSPHOKINASE” value [2] was 223.67 u/L, the CREATININE [2] was 0.14 mg/dL and the GLUCOSE [2] was 142.33 mg/dL. The “LACTATE DEHYDROGENASE” value [2] was 61.33 u/L, the LIPASE [2] was 13.67 u/L and the PHOSPHORUS [2] was 9.77 mg/dL. The POTASSIUM [2] was 6.34 MEQ/L, the SODIUM [2] was 144.3 MEQ/L and the “TOTAL BILIRUBIN” value [2] was 0.13 mg/dL. The “TOTAL PROTEIN” value [2] was 5.33 G/DL, the “URIC ACID” value [2] was 0.6 mg/dL and the “ABSOLUTE BASOPHIL” value [3] was 0 CELLS/uL. The “ABSOLUTE EOSINOPHIL” value [3] was 0 CELLS/uL, the “ABSOLUTE LYMPHOCYTE” value [3] was 9833.67 CELLS/uL and the “ABSOLUTE MONOCYTE” value [3] was 155 CELLS/uL. The “ABSOLUTE SEGMENTED NEUTROPHIL” value [3] was 711.33 CELLS/uL, the BASOPHIL [3] was 0% and the EOSINOPHIL [3] was 0%. For the same compound, the “ERYTHROCYTE COUNT” value [3] was 5.5 x10E6/uL, the HEMATOCRIT [3] was 35.1% and the HEMOGLOBIN [3] was 13.53 G/DL. The “LEUKOCYTE COUNT” value [3] was 10.7 x10E3/uL, the LYMPHOCYTE [3] was 91.67% and the “MEAN CORPUSCULAR HEMOGLOBIN” value [3] was 24.63 pg. For the same compound, the “MEAN CORPUSCULAR HEMOGLOBIN CONCENTRATION” value [3] was 38.57 G/DL, the “MEAN CORPUSCULAR VOLUME” value [3] was 63.83 fL and the MONOCYTE [3] was 1%. The NEUTROPHIL [3] was 7.33%, the “NUCLEATED RED BLOOD CELLS” value [3] was 0 /100WBC and the “PLATELET COUNT” value [3] was 1129.67 x10E3/uL. The “ALANINE AMINOTRANSFERASE” value [3] was 57 u/L, the “ALKALINE PHOSPHATASE” value [3] was 337 u/L and the “ASPARTATE AMINOTRANSFERASE” value [3] was 75 u/L. The “BLOOD UREA NITROGEN” value [3] was 15 mg/dL, the “CARBON DIOXIDE” value [3] was 28 mmol/L and the CHLORIDE [3] was 99 MEQ/L. For the same compound, the CHOLESTEROL [3] was 72 mg/dL, the “CREATINE PHOSPHOKINASE” value [3] was 195.33 u/L and the CREATININE [3] was 0.18 mg/dL. The GLUCOSE [3] was 180 mg/dL, the “LACTATE DEHYDROGENASE” value [3] was 77.33 u/L and the LIPASE [3] was 10.67 u/L. It also gave a PHOSPHORUS [3] of 9.47 mg/dL, a POTASSIUM [3] of 4.99 MEQ/L and an SODIUM [3] of 144.87 MEQ/L. The “TOTAL BILIRUBIN” value [3] was 0.23 mg/dL, the “TOTAL PROTEIN” value [3] was 6.1 G/DL and the “URIC ACID” value [3] was 0.5 mg/dL.
